Like-named read-outs stand apart in the source and are kept apart here.
Assays:
Type in all cases: binding
streptavidin [1] = biological target: T1, streptavidin (Streptomyces avidinii, UniProt P22629); assay: Three slot diffraction sensor: leaching of ligand out of the central sensing volume
T1 construct: purchased Sigma Corp., St. Louis, Mo; B3763

streptavidin [2] = biological target: T1, streptavidin; assay: Dual compartment absorbance sensor: leaching of ligand from agarose gel containing streptavidin; conditions: for effective binding constant k from fit of equation 3 to concentration-time traces: 2.5% agarose gel, streptavidin, 8.4×10^−4 M ligand, 0.1×SSC buffer, 220 nm absorbance; for coefficient1 of fitting function f=coefficient1*Error_Function(coefficient2*time^1/2) / coefficient2 of fitting function f=coefficient1*Error_Function(coefficient2*time^1/2): average of traces, Marquardt-Levenberg fit
anti-biotin = assay: Dual compartment absorbance sensor: leaching of ligand from agarose gel containing anti-biotin; conditions: anti-biotin instead of streptavidin, otherwise as Example 2

T1 sequence (P22629 25-183, species assumed): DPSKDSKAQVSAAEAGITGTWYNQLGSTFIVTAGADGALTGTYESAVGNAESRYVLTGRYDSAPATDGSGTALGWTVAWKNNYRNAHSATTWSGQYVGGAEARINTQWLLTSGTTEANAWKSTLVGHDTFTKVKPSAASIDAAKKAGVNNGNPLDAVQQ

SMILES	leaching out of central sensing volume, peak-to-peak intensity difference versus time (FIG. 10) (streptavidin [1])	effective binding constant k from fit of equation 3 to concentration-time traces (streptavidin [2])	coefficient1 of fitting function f=coefficient1*Error_Function(coefficient2*time^1/2) (streptavidin [2])	coefficient2 of fitting function f=coefficient1*Error_Function(coefficient2*time^1/2) (streptavidin [2])	factor by which binding constant k of biotin exceeds that of glutamine (streptavidin [2]; biotin versus glutamine curve-fits)	binding affinities with anti-biotin in upstream compartment (FIGS. 7A and 7B) (anti-biotin)	leaching out of central sensing volume, peak-to-peak intensity difference versus time (FIG. 10) (streptavidin [1]; three samples each, 1×TBE buffer, qualitative)
O=C(O)CCCC[C@@H]1SC[C@@H]2NC(=O)N[C@@H]21 [biotin]	more activity in the biotin traces	0.01186 min⁻¹	~1.5 mM	0.1089	4	indistinguishable	
NC(=O)CC[C@H](N)C(=O)O [glutamine]		0.00325 min⁻¹	~1.6 mM	0.0570		indistinguishable	much slower than biotin leaching

Reference: patent US6710877B2, “Apparatus and methods for determining biomolecular interactions” (Corning Incorporated, priority 2001, dated 2004)
